As usually defined, the Ki is a dissociation constant, usually derived from enzyme kinetics or from competition with a known ligand. A lower Ki goes with a stronger hold on the target.

A value given as a limit tells only on which side of the number the result lay.

Experimental findings from patent US9296741B2, “Bromodomain inhibitors” (priority 2012, dated 2016) are described below.

In data set [1] the target is human BRD4 first bromodomain (BDI_K57-E168) (Homo sapiens (Human), UniProt O60885). The data set is described as follows: TR-FRET bromodomain binding assay, BRD4 first bromodomain. On the technique in general: Time-resolved FRET reads energy transfer from a long-lived donor to a nearby acceptor.
Data set [2] concerns LPS induced IL-6 production. Nature of the data set: LPS (lipopolysaccharide) induced IL-6 production mouse assay. To be noted: Mus musculus, read-out: Inhibition of LPS induced IL-6 production in Mice, % inhibition at 3 mg/kg; 3 mg/kg oral, 1 h before LPS; serum IL-6 2 h after LPS. It is filed as in vivo.
The target of data set [3] is human BRD4 second bromodomain (BDII_E352-M457) (Homo sapiens (Human), UniProt O60885). The data set is described as follows: TR-FRET bromodomain binding assay, BRD4 second bromodomain.
Data set [4] is described as follows: Rat liver microsome stability assay. It is filed as in vitro ADME. The conditions noted are these: rat liver microsomes (male Sprague-Dawley), 0.5 μM test compound, 0.25 mg/mL microsomal protein, pH 7.4, 37° C.; read-out: Stability in rat liver microsomes (t1/2 in minutes).
Data set [5] deals with breast cancer cell line MX-1. Nature of the data set: MX-1 cell line proliferation assay. In kind it is cell-based, human. The conditions noted are these: Homo sapiens, MX1, 72 h; MX-1 cells, 3-day proliferation, Cell Titer Glo; read-out: Cellular proliferation: EC50. A general note: ATP-based viability assays read luminescence as a measure of living cells.
Data set [6] can be described thus: Mouse liver microsome stability assay. It is filed as in vitro ADME. The conditions noted are these: male, CD1, mouse, microsomes, pH 7.4. (Microsomes from liver hold many membrane-bound enzymes, among them those of drug oxidation.)
A short description of data set [7]: Human liver microsome stability assay. It is filed as in vitro ADME. To be noted: both sexes, human, microsomes, pH 7.4.

Regarding `CCS(=O)(=O)c1ccc(Oc2ccc(C#N)cc2)c(-c2cn(C)c(=O)c3[nH]ccc23)c1` [Example 304, 4-[4-(ethylsulfonyl)-2-(6-methyl-7-oxo-6,7-dihydro-1H-pyrrolo[2,3-c]pyridin-4-yl)phenoxy]benzonitrile], the Ki in data set [1] was found to be 9 nM; in data set [3] it was 21.8 nM. Moreover, the inhibition in vivo at 3 mg/kg in data set [2] came out at 67%. In addition, the half-life at 0.5 μM in data set [4] is 65 min; in data set [6], 72 min; in data set [7] it was above 120 min. Moreover, in data set [5], the EC50 is 32.3 nM.
As to `Cn1cc(-c2cc(C(=O)N3CCOCC3)ccc2Oc2ccc(F)cc2F)c2cc[nH]c2c1=O` [Example 56, 4-[2-(2,4-difluorophenoxy)-5-(morpholin-4-ylcarbonyl)phenyl]-6-methyl-1,6-dihydro-7H-pyrrolo[2,3-c]pyridin-7-one], the Ki was 12.2 nM in data set [1] and 2.4 nM in data set [3]. Also, in data set [2], the inhibition in vivo at 3 mg/kg amounted to 28%. Further, the half-life at 0.5 μM in data set [4] amounted to 30 min; in data set [6], 36 min; in data set [7], 39 min. Also, in data set [5], the EC50 is 251 nM.
For `CCS(=O)(=O)Nc1ccc(OCC(C)(C)C)c(-c2cn(C)c(=O)c3[nH]ccc23)c1` [Example 144, N-[4-(2,2-dimethylpropoxy)-3-(6-methyl-7-oxo-6,7-dihydro-1H-pyrrolo[2,3-c]pyridin-4-yl)phenyl]ethanesulfonamide], the Ki in data set [1] amounted to 13.6 nM; in data set [3] it was 17.8 nM. In data set [2], the inhibition in vivo at 3 mg/kg was determined as 48%. Further, the values for the half-life at 0.5 μM in data set [4], in data set [6] and in data set [7] were 19 min, 17 min and 18 min, respectively. For the same compound, the EC50 in data set [5] is 76.9 nM.
`CCS(=O)(=O)c1cnc(Oc2ccc(F)cc2F)c(-c2cn(C)c(=O)c3[nH]ccc23)c1` [Example 294, 4-[2-(2,4-difluorophenoxy)-5-(ethylsulfonyl)pyridin-3-yl]-6-methyl-1,6-dihydro-7H-pyrrolo[2,3-c]pyridin-7-one]: the results for the Ki in data set [1] and in data set [3] were 47.9 nM and 21.7 nM, respectively. Also, the inhibition in vivo at 3 mg/kg in data set [2] is 79%. Besides, the half-life at 0.5 μM in data set [4], in data set [6] and in data set [7] was above 120 min throughout. In addition, in data set [5], the EC50 worked out at 332 nM.
On to `CCS(=O)(=O)c1ccc(O[C@H]2CC[C@@H](OC)CC2)c(-c2cn(C)c(=O)c3[nH]ccc23)c1` [Example 248, 4-{5-(ethylsulfonyl)-2-[(cis-4-methoxycyclohexyl)oxy]phenyl}-6-methyl-1,6-dihydro-7H-pyrrolo[2,3-c]pyridin-7-one], for which the Ki was 1.9 nM in data set [1] and 1.3 nM in data set [3]. Further, the inhibition in vivo at 3 mg/kg in data set [2] came to 82%. The half-life at 0.5 μM in data set [4] came to 16 min; in data set [6] it was 5 min; in data set [7] it was 13 min. Further, the EC50 in data set [5] was 26.4 nM.
`Cn1cc(-c2cc(S(C)(=O)=O)ccc2Oc2ccc(Cl)cc2)c2cc[nH]c2c1=O` [Example 154, 4-[2-(4-chlorophenoxy)-5-(methylsulfonyl)phenyl]-6-methyl-1,6-dihydro-7H-pyrrolo[2,3-c]pyridin-7-one]: the Ki stood at 20.8 nM in data set [1] and 13.1 nM in data set [3]. In data set [2], the inhibition in vivo at 3 mg/kg stood at 73%. Further, the half-life at 0.5 μM came to 66 min in data set [4], 18 min in data set [6] and 42 min in data set [7]. For the same compound, the EC50 in data set [5] is 65.5 nM.
With `Cn1cc(-c2cc(S(=O)(=O)N3CC(F)(F)C3)ccc2OCC2CC2)c2cc[nH]c2c1=O` [Example 308, 4-{2-(cyclopropylmethoxy)-5-[(3,3-difluoroazetidin-1-yl)sulfonyl]phenyl}-6-methyl-1,6-dihydro-7H-pyrrolo[2,3-c]pyridin-7-one], the Ki in data set [1] turned out to be 49.9 nM; in data set [3], 6.5 nM. In addition, in data set [2], the inhibition in vivo at 3 mg/kg was 48%. In addition, the half-life at 0.5 μM in data set [4] came to 10 min; in data set [6], 16 min; in data set [7], 20 min. For the same compound, the EC50 in data set [5] was determined as 29.3 nM.
With `Cn1cc(-c2cc(S(=O)(=O)C3CC3)ccc2Oc2ccc(F)cc2F)c2cc[nH]c2c1=O` [Example 290, 4-[5-(cyclopropylsulfonyl)-2-(2,4-difluorophenoxy)phenyl]-6-methyl-1,6-dihydro-7H-pyrrolo[2,3-c]pyridin-7-one], the results for the inhibition constant Ki in data set [1] and in data set [3] were 5 nM and 1.9 nM, respectively. For the same compound, in data set [2], the inhibition in vivo at 3 mg/kg amounted to 64%. Also, the half-life at 0.5 μM came to 48 min in data set [4], 52 min in data set [6] and 73 min in data set [7]. Besides, the EC50 in data set [5] turned out to be 36.2 nM.
Regarding `Cn1cc(-c2cc(NS(C)(=O)=O)ccc2Oc2c(F)cc(F)cc2F)c2cc[nH]c2c1=O` [Example 49, N-[3-(6-methyl-7-oxo-6,7-dihydro-1H-pyrrolo[2,3-c]pyridin-4-yl)-4-(2,4,6-trifluorophenoxy)phenyl]methanesulfonamide], the Ki came out at 1.7 nM in data set [1] and 1.5 nM in data set [3]. Besides, the inhibition in vivo at 3 mg/kg in data set [2] came to 57%. Moreover, the half-life at 0.5 μM in data set [4] was 51 min; in data set [6], 46 min; in data set [7], 71 min. Moreover, the EC50 in data set [5] turned out to be 19.6 nM.
With `Cn1cc(-c2cc(NS(C)(=O)=O)ccc2Oc2ccccc2C(F)(F)F)c2cc[nH]c2c1=O` [Example 32, N-{3-(6-methyl-7-oxo-6,7-dihydro-1H-pyrrolo[2,3-c]pyridin-4-yl)-4-[2-(trifluoromethyl)phenoxy]phenyl}methanesulfonamide], the Ki was found to be 16 nM in data set [1] and 7.5 nM in data set [3]. Also, the inhibition in vivo at 3 mg/kg in data set [2] is 69%. Besides, the half-life at 0.5 μM is 82 min in data set [4], 32 min in data set [6] and 24 min in data set [7]. Further, the EC50 in data set [5] is 83.3 nM.
With `CNS(=O)(=O)Nc1ccc(Oc2ccc(F)cc2F)c(-c2cn(C)c(=O)c3[nH]ccc23)c1` [Example 65, N-[4-(2,4-difluorophenoxy)-3-(6-methyl-7-oxo-6,7-dihydro-1H-pyrrolo[2,3-c]pyridin-4-yl)phenyl]-N′-methylsulfuric diamide], the values for the Ki in data set [1] and in data set [3] were 11.6 nM and 4.9 nM, respectively. The inhibition in vivo at 3 mg/kg in data set [2] worked out at 63%. Besides, the half-life at 0.5 μM in data set [4] was above 120 min; in data set [6], 11 min; in data set [7], 88 min. Besides, the EC50 in data set [5] is 25.5 nM.
As for `CCS(=O)(=O)c1ccc(OCC2CC2(F)F)c(-c2cn(C)c(=O)c3[nH]ccc23)c1` (stereo not shown) [Example 240, 4-{2-[(2,2-difluorocyclopropyl)methoxy]-5-(ethylsulfonyl)phenyl}-6-methyl-1,6-dihydro-7H-pyrrolo[2,3-c]pyridin-7-one], the inhibitory constant (Ki) was determined as 2 nM in data set [1] and 2.8 nM in data set [3]. The inhibition in vivo at 3 mg/kg in data set [2] was determined as 62%. Besides, the half-life at 0.5 μM was above 120 min in data set [4], 47 min in data set [6] and above 120 min in data set [7]. Also, in data set [5], the EC50 is 11.5 nM.
`CCS(=O)(=O)Nc1ccc(Oc2ccc(C(N)=O)cc2)c(-c2cn(C)c(=O)c3[nH]ccc23)c1` [Example 84, 4-{4-[(ethylsulfonyl)amino]-2-(6-methyl-7-oxo-6,7-dihydro-1H-pyrrolo[2,3-c]pyridin-4-yl)phenoxy}benzamide]: the Ki in data set [1] was determined as 1.67 nM; in data set [3], 0.65 nM. Also, the inhibition in vivo at 3 mg/kg in data set [2] was found to be 69%. Moreover, the half-life at 0.5 μM was 92 min in data set [4], above 120 min in data set [6] and 112 min in data set [7]. Moreover, the EC50 in data set [5] is 231 nM.
Take `CCS(=O)(=O)c1ccc(Oc2ccc(F)cc2F)c(-c2cn(C)c(=O)c3[nH]ccc23)c1` [Example 168, 4-[2-(2,4-difluorophenoxy)-5-(ethylsulfonyl)phenyl]-6-methyl-1,6-dihydro-7H-pyrrolo[2,3-c]pyridin-7-one]: the inhibitory constant (Ki) in data set [1] was 5.4 nM; in data set [3], 1.3 nM. For the same compound, the inhibition in vivo at 3 mg/kg in data set [2] stood at 70%. For the same compound, the half-life at 0.5 μM worked out at 82 min in data set [4], 25 min in data set [6] and 66 min in data set [7]. For the same compound, the EC50 in data set [5] was determined as 27.7 nM.
Regarding `CCS(=O)(=O)c1ccc(NC2CC2)c(-c2cn(C)c(=O)c3[nH]ccc23)c1` [Example 267, 4-[2-(cyclopropylamino)-5-(ethylsulfonyl)phenyl]-6-methyl-1,6-dihydro-7H-pyrrolo[2,3-c]pyridin-7-one], the Ki in data set [1] was 4.4 nM; in data set [3], 4.2 nM. The inhibition in vivo at 3 mg/kg in data set [2] worked out at 74%. The figures for the half-life at 0.5 μM in data set [4], in data set [6] and in data set [7] were 18 min, above 120 min and 95 min, respectively. The EC50 in data set [5] amounted to 43.6 nM.
With `CN(C)S(=O)(=O)c1cnc(NCC2CC2)c(-c2cn(C)c(=O)c3[nH]ccc23)c1` [Example 245, 6-[(cyclopropylmethyl)amino]-N,N-dimethyl-5-(6-methyl-7-oxo-6,7-dihydro-1H-pyrrolo[2,3-c]pyridin-4-yl)pyridine-3-sulfonamide], the Ki turned out to be 2.5 nM in data set [1] and 3.7 nM in data set [3]. The inhibition in vivo at 3 mg/kg in data set [2] is 71%. The values for the half-life at 0.5 μM in data set [4], in data set [6] and in data set [7] were 24 min, 12 min and 32 min, respectively. For the same compound, in data set [5], the EC50 was 26.9 nM.
